System: angiogenesis (vascular density) in air pouch granuloma
Assay: Murine air pouch granuloma model of inflammatory angiogenesis
Assay type: in vivo, mice
Conditions: positive control
Text: C. Measurement of Angiogenesis in vivo—Murine Air Pouch Granuloma Model
The murine airpouch granuloma model of chronic inflammation (Kimura et al., 1985, J. Pharmacobio-Dyn., 8:393–400; Colville-Nash et al., 1995, J. Pharm. and Exp. Ther., 274:1463–1472) whose disclosure is incorporated herein by reference in its entirety, is characterized by inflammatory cell influx, fibrous tissue proliferation and intense angiogenesis. […] In addition, angiogenesis can be accurately quantitated by a vascular casting method.
Day −1, mice are anesthetized using Aerrane (isoflurane) gas (5%) or other approved methods, after which 3 mls of air is injected into the dorsal subcutaneous tissue using a 27 g needle. Mice are allowed to recover. […]
When the granuloma is removed it is weighed and then dried for 3 days at 45° C. and reweighed. […] The carmine content is then determined against a carmine red standard curve (0.5 to 2 mg/ml) generated in extracted tissue from non carmine treated animals and read at 490 nm. Sample and standard values are determined typically using DeltaSoft Elisa analysis software (Biometallics Inc., Princeton, N.J.). […]
The effect of compounds on vascular density is typically measured 6 days after induction of the granuloma. This time point has been determined to be at or near the peak of angiogenesis. […] Medroxyprogesterone has no effect on granuloma size as measured by dry weight.

Substance: medroxyprogesterone
- maximum reduction (vascular density / vascular index) (measured 6 days after induction): 50%
- effect on granuloma size as measured by dry weight: no effect

Source: patent US7005434B2, “Compounds and uses thereof” (SB Corporation, priority 2001, dated 2006)
